Assay results from paper doi:10.1101/2023.03.31.535182v2 (biorxiv, 2023).

System: MsGH13
Test: UV/Vis release of 4-nitrophenolate at […] nm
Type: biochemical, Marinovum sp.
Details: 50 mM citric acid/phosphate, 150 mM NaCl, pH 6.5, 25 °C

- Km: 950 ± 470 µM
SMILES: O=[N+]([O-])c1ccc(O[C@H]2O[C@H](CO)[C@@H](O)[C@H](O)[C@H]2O)cc1 [PNPGlc]
